Converted amounts (≈) assume the structure as drawn. Where a name gives a salt, the structure may show the parent alone. Read-outs that look alike come from different tables or passages of the source.
Key:
in vitro = settings: both, human
[1] = Metabolic stability in human liver microsomes; settings: both; for remaining at 40 min, 2 µM: Mean of 2, 40 min
[2] = tested on: Aspergillus niger (strain VURV-F 822); test: Antifungal disk diffusion method; type: cell-based; settings: for zone of inhibition at 4 µg/mL: Concentration 0.004 mg/mL, Boscalid, Bixafen marked st; for zone of inhibition at 4 µg/mL / zone of inhibition at 8 µg/mL / zone of inhibition at 16 µg/mL / zone of inhibition at 30 µg/mL / zone of inhibition at 60 µg/mL: 0 = absence of antifungal activity; for zone of inhibition at 4 µg/mL / zone of inhibition at 60 µg/mL: Fluxapyroxad; for zone of inhibition at 4 µg/mL / zone of inhibition at 8 µg/mL / zone of inhibition at 16 µg/mL / zone of inhibition at 30 µg/mL / zone of inhibition at 60 µg/mL / zone of inhibition at 120 µg/mL / zone of inhibition at 250 µg/mL / zone of inhibition at 500 µg/mL / zone of inhibition at 1000 µg/mL / zone of inhibition at 2000 µg/mL: read-out: Diameter of inhibition zone; for zone of inhibition at 8 µg/mL: Concentration 0.008 mg/mL; for zone of inhibition at 16 µg/mL: Concentration 0.016 mg/mL; for zone of inhibition at 30 µg/mL: Concentration 0.03 mg/mL; for zone of inhibition at 30 µg/mL / zone of inhibition at 60 µg/mL: (±)-29 marked st; for zone of inhibition at 60 µg/mL: Concentration 0.06 mg/mL, Bixafen; for zone of inhibition at 120 µg/mL: Concentration 0.12 mg/mL, (±)-28 marked st (static growth); for zone of inhibition at 250 µg/mL: Concentration 0.25 mg/mL, (±)-28 marked st (static growth, secondary growth of mycelium); for zone of inhibition at 500 µg/mL: Concentration 0.5 mg/mL; for zone of inhibition at 500 µg/mL / zone of inhibition at 1000 µg/mL / zone of inhibition at 2000 µg/mL: 10 μl per disk; for zone of inhibition at 1000 µg/mL: Concentration 1 mg/mL; for zone of inhibition at 2000 µg/mL: Concentration 2 mg/mL; for MIC: disk diffusion, small zones of inhibition with secondary mycelial growth, read-out: minimum inhibitory concentration
Experimental: Antifungal activity of the synthetic compounds using disk diffusion methods The compounds were tested for plant pathogens Aspergillus niger (strain VURV-F 822), which was received from Culture collection of microorganisms of Crop Research Institute (Prague, Czech […]
The synthetic compounds' antifungal activity was evaluated using a disk diffusion assay for testing filamentous fungi (CLSI M51-A) and broth microdilution antifungal susceptibility testing (EUCAST E.DEF 7.3.1; CLSI M38-A2)
[CLSI M51-A. Method for Antifungal Disk Diffusion Susceptibility Testing of Nondermatophyte Filamentous Fungi; Approved Guideline.CLSI document M51-A. Wayne, PA:
Clinical and Laboratory Standards Institute; 2010. This method is standardized for Altenaria, Aspergillus, Bipolaris, Fusarium, order Mucorales, etc.]
[CLSI M38-A2. 2008. Reference method for broth dilution antifungal susceptibility testing of filamentous fungi, 2nd ed Approved standard M38 -A2 Clinical and Laboratory Standards Institute, […]
Antifungal disk diffusion method
The solutions of fungicides and their analogues were diluted in dimethyl sulfoxide (DMSO) to […]
mg/mL for each test component. Sterile paper disks (ASPECT, Ukraine) were soaked with 10 μl of a solution of the appropriate fungicide from the highest concentration to the lowest.
The fungal strains were cultured on Petri dishes with Saburo dextrose agar (Condalab, Spain) and incubated at 25 °C for 5 days. Sterile Dulbecco's phosphate -buffered saline (DPBS) with 0,1 % Tween 20 was used to cover colonies of fungus for obtained conidia l suspension. Suspension of conidia was adjusted to inoculums 2×10^5 conidia/mL by sterile DPBS.
For antifungal disk diffusion test we used square Petri dishes (FALCON A Corning Brand, USA). The conidial suspension (0.5 mL) was added to Petri dishes with Saburo dextrose agar. The suspension was evenly distributed over the surface of the nutrient medium with a glass spatula.
After the surface of the inoculated medium was dry, the disks with different concentrations of testing compounds were added to the Petri dishes. Each compound was tested in triplicate at different concentrations. Growth control was a disk with 10 μl of DMSO, which was used for test […]
Petri dishes incubated at 25 °C for 72 h. The test compounds at known concentrati on into contact with an inoculated medium then exert a growth-inhibiting effect then a clear zone (the zone of […]
inhibition) appears around the test product. The diameter of a clear zone around the well is […]
If the fungal strain is susceptible to the antifungal agent, then a zone of inhibition appears on the agar plate. If it is resistant to the test compound, then no zone is evident. The size of the zone of inhibition is usually related to the level of antifungal activity present in the compound – a larger […]
The growth rate of all strains for each concentration of test compounds was determined visually and compared with the growth of control.
Broth microdilution antifungal susceptibility testing
A 96-well CELLSTAR plate (sterile, flat-bottomed, polystyrene, transparent) was used to determine MIC by broth microdilution method. Also, dabble straight RPMI-1640 medium with 2% glucose (2x RPMI 2%G) was used for this method. Spore suspension for plate inoculation was prepared according to the method described above for the disc diffusion method.
The each well in the plate contained 49 μl of medium (2x RPMI 2%G), 50 μl of inoculum (prepared in DPBS) and 1 μl of the stock solution of the test substance. Positive control wells contained 50 μl medium and 50 μl inoculum, and sterile control wells contained 50 μl medium and […]
To determine the MIC by the microdilution method, a series of stock solutions of fungicides and their analogues in DMSO with the following concentrations were prepared: 3.2 mg/mL, 1.6 mg/mL, […]
1 μl of the stock solutions of the test substances were added to each well to obtain the following […]
Immediately after adding all the components to the plates, the optical density was measured at […]

[3] = Kinetic solubility in phosphate-buffered saline, pH 7.4; type: physicochemical; settings: for solubility kinetic at 2 h / solubility at 2 h: 25 °C, pH 7.4, aqueous buffer, kinetic from dmso stock; for solubility at 2 h: PBS solubility
Experimental: Analysis of Aqueous Solubility […]
compound (Ondansetron) were assessed for kinetic solubility in phosphate -buffered saline, pH 7.4.
Phosphate buffered saline, pH 7.4 (Sigma -Aldrich, USA; Cat #P3813) […]
MultiScreen HTS 96 Well Filter Plates (Millipore, Ireland; Cat # MSSLBPC10) […]
Matrix Multichannel Electronic Pipette 2-125 μL, 5-250 μL, 15-1250 μL (Thermo Scientific, USA; […]
Vacuum pump (Millipore, USA; Model # XX5500000)
The measurements were performed using SpectraMax Plus reader in UV -Vis mode. Acquisition and […]
The measurements were performed using SpectraMax Paradigm reader in UV-Vis mode.
Acquisition and analysis of the data were performed using SoftMax Pro v.5.4 (Molecular Devices) […]
Kinetic solubility assay was performed according to the Enamine’s aqueous solubility SOP. Briefly, using a 20 mM stock solution of the compound in 100% DMSO dilutions were prepared to a theoretical concentration of 400 μM in duplicates in phosphate-buffered saline pH 7.4 […]
compound dilutions in PBS were further allowed to equilibrate at 25 °C on a thermostatic shaker for two hours and then filtered through HTS filter plates using a vacuum manifold. The filtrates of test compounds were diluted 2-fold with acetonitrile with 2% DMSO before measuring.
In parallel, compound dilutions in 50% acetonitrile/PBS were prepared to theoretical concentrations […]
calibration curves. Ondansetron was used as reference compound to control proper assay performance. 200 μl of each sample was transferred to 96-well plate and measured in 230-550 nm range with 5 nm step. The effective range of this assay is approximately 2-400 μM and the […]
The concentrations of compounds in PBS filtrate are calculated using a dedicated Microsoft Excel calculation script. Proper absorbance wavelengths for calculations are selected for each compound manually based on absorbance maximums (absolute absorbance unit values for the minimum and maximum concentration points within the 0 – 3 OD range). Each final dataset is visually evaluated by the operator, and goodness of fit (R2) is calculated for each calibration curve. […]
samples were diluted 2-fold with acetonitrile containing internal standard and were analyzed using the HPLC system coupled with a tandem mass spectrometer. The effective range of this assay is […]

physchem = settings: pH 7.4, LogD, pH 7.4
Experimental: Determination of Distribution Coefficient (LogD, pH 7.4)
coefficient (or LogD) is a logarithm of the ratio of drug concentrations in two immiscible solvents,
typically pH-buffered water and n-octanol. It is a measure of hydrophobic/hydrophilic properties of
a given molecule. The partition of test compounds is determined using a shake-flask method, which
involves mixing of a certain amount of the solute of interest in defined volumes of n-octanol and an
aqueous buffer of choice followed by equilibration of the mixture by incubation with efficient
mixing. Then, the distribution of the compounds in each solvent was controlled using LC-MS/MS.
Phosphate buffered saline, tablet (Sigma-Aldrich, USA; Cat # P4417)
Acetic acid (Enamine, Ukraine)
1.1 mL microtubes in microracks, pipettor tips (Thermo Scientific, USA).
National Scientific MicroTube™ Rack (Thermo Fisher Scientific, USA; Cat # TN094612R)
Gradient HPLC system (Shimadzu, Japan)
Triple quadrapole mass-detector API 3000 with TurboIonSpray Ion Source (AB Sciex, Canada)
MTR22 Multi Mix Rotator (UNICO, USA)
Laboratory Centrifuge, Sigma 4-15C, Qiagen (SIGMA GmbH, Germany)
Water purification system Millipore Milli-Q Gradient A10 (Millipore, France)
All measurements were performed using a Shimadzu Prominence HPLC system including a
vacuum degasser, gradient pumps, a reverse phase column, a column oven and an autosampler.
Mass spectrometric analysis was performed using an API 4000 QTRAP mass spectrometer from
Applied Biosystems/MDS Sciex (AB Sciex) with Turbo V ion source and TurboIonspray
interface. The TurboIonSpray ion source was used in both positive and negative ion modes.
Acquisition and analysis of the data were performed using Analyst 1.6.3 software.
Incubations were carried out in Eppendorf-type polypropylene microtubes in triplicates. A 2.5 μL
aliquot of 20 mM DMSO stock of a test compound was added into the previously mutually
saturated mixture containing 500 μL of PBS (pH 7.4) and 500 μL of octanol. The solution was
allowed to mix in a rotator for 1 hour at 30 rpm. Phase separation was assured by centrifugation for
2 min at 6000 rpm. The octanol phase was diluted 100-fold with 40% acetonitrile, and the aqueous
phase (PBS buffer) was diluted 10-fold with 40% acetonitrile. The samples (both phases) were
analyzed using an HPLC system coupled with a tandem mass spectrometer.
Calculations of the partition ratios were carried out using the equation below.
where: – peak area of the analyte in octanol phase
– peak area of the analyte in PBS buffer
– dilution coefficient for octanol phase dp – dilution coefficient for aqueous phase

[4] = Table S5, injection 1, octanol/PBS pH 7.4
[5] = Table S5, injection 2, octanol/PBS pH 7.4
[6] = Table S5, injection 3, octanol/PBS pH 7.4

## CC(C)NCC(O)COc1cccc2ccccc12 (racemic) [Propranolol, (+,-) Propranolol hydrochloride]
In vitro; microsomes, pH 7.4, % Remaining, Mean of 2
  remaining at 40 min, 2 µM: 68%
In vitro; microsomes, pH 7.4, t1/2
  half-life at 2 µM: 1.18 h
In vitro; s9, pH 7.4, t1/2
  half-life at 2 µM: ~5.93 h
[1]; liver microsomes (pooled), pH 7.4, % Remaining, Table S7, 2st batch
  remaining at 40 min, 2 µM: 58%

## O=C(Nc1ccccc1-c1ccc(Cl)cc1)c1cccnc1Cl [Boscalid, boscalid]
[4]
  D: 3.62E+03
[5]
  D: 2.86E+03
[6]
  D: 4.07E+03
[2]
  zone of inhibition at 4 µg/mL: 7.5 ± 1 mm
  zone of inhibition at 8 µg/mL: 8.5 ± 1 mm
  zone of inhibition at 16 µg/mL: 10.5 ± 1.5 mm
  zone of inhibition at 30 µg/mL: 13.5 ± 2 mm
  zone of inhibition at 60 µg/mL: 17.8 ± 2.25 mm
  zone of inhibition at 120 µg/mL: 21.2 ± 2.25 mm
  zone of inhibition at 250 µg/mL: 20.2 ± 1 mm
  zone of inhibition at 500 µg/mL: 26 ± 2.5 mm
  zone of inhibition at 1000 µg/mL: 29 ± 1.5 mm
  zone of inhibition at 2000 µg/mL: 34.2 ± 0.75 mm
  MIC: 4 µg/mL (≈ 11.7 µM)
[3]
  solubility kinetic at 2 h: 11 µM (≈ 3.78 µg/mL)

## Cc1nc2c([nH]1)CCN(C(=O)c1ccc(NC(=O)C3CC4CC3(c3ccccc3)C4)cc1)c1ccccc1-2 (stereo not drawn) [Compound 26]
[4]
  D: 9.55E+03
[5]
  D: 1.25E+04
[6]
  D: 1.36E+04
physchem
  logD at 1 h: 3.98
[3]
  solubility kinetic at 2 h: 14 µM (≈ 7.04 µg/mL)
[3]; pH 7.4, Incubation 1
  solubility at 2 h: 15 µM (≈ 7.54 µg/mL)
[3]; pH 7.4, Incubation 2
  solubility at 2 h: 14 µM (≈ 7.04 µg/mL)
[3]; pH 7.4, Mean
  solubility at 2 h: 14 µM (≈ 7.04 µg/mL)
[1]; human liver microsomes (pooled), pH 7.4
  microsomal CLint at 2 μM: 12 µL/min/mg
[1]; liver microsomes (pooled), pH 7.4, % Remaining without cofactor, no NADPH cofactor, Table S6, 1st batch
  remaining at 40 min, 2 µM: 109%
[1]; liver microsomes (pooled), pH 7.4, % Remaining, Mean of 2, 7 min, Table S6, 1st batch
  remaining at […], 2 µM: 81%
[1]; liver microsomes (pooled), pH 7.4, % Remaining, Mean of 2, 15 min, Table S6, 1st batch
  remaining at […], 2 µM: 81%
[1]; liver microsomes (pooled), pH 7.4, % Remaining, Mean of 2, 25 min, Table S6, 1st batch
  remaining at 25 min, 2 µM: 83%
[1]; liver microsomes (pooled), pH 7.4, % Remaining, Table S6, 1st batch
  remaining at 40 min, 2 µM: 76%
[1]; liver microsomes (pooled), pH 7.4, kel, Table S6, 1st batch
  k el at 2 µM: 8.33e-05 s⁻¹
[1]; liver microsomes (pooled), pH 7.4, t1/2, Table S6, 1st batch
  half-life at 2 µM: 2.25 h

## Cn1cc(C(=O)Nc2ccccc2-c2cc(F)c(F)c(F)c2)c(C(F)F)n1 [Fluxapyroxad, fluxapyroxad]
[4]
  D: 3.37E+03
[5]
  D: 2.99E+03
[6]
  D: 3.24E+03
[2]
  zone of inhibition at 4 µg/mL: 8 ± 2 mm
  zone of inhibition at 8 µg/mL: 11.8 ± 1.25 mm
  zone of inhibition at 16 µg/mL: 14.5 ± 0.5 mm
  zone of inhibition at 30 µg/mL: 18.2 ± 0.4 mm
  zone of inhibition at 60 µg/mL: 22.2 ± 1.25 mm
  zone of inhibition at 120 µg/mL: 25.2 ± 1.5 mm
  zone of inhibition at 250 µg/mL: 30 ± 0.5 mm
  zone of inhibition at 500 µg/mL: 34.5 ± 0.75 mm
  zone of inhibition at 1000 µg/mL: 39.2 ± 2.25 mm
  zone of inhibition at 2000 µg/mL: 40.8 ± 1.6 mm
  MIC: 4 µg/mL (≈ 10.5 µM)
[3]
  solubility kinetic at 2 h: 25 µM (≈ 9.53 µg/mL)

## O=C(NC1CCN(CCCCC2(C(=O)NCC(F)(F)F)c3ccccc3-c3ccccc32)CC1)c1ccccc1-c1ccc(C(F)(F)F)cc1 [Lomitapide, lomitapide]
[4]
  D: 5.98E+08
[5]
  D: 3.42E+05
[6]
  D: 6.79E+04
[3]
  solubility kinetic at 2 h: 3 µM (≈ 2.08 µg/mL)

## COC(=O)Nc1nc2ccc(C(=O)c3ccccc3)cc2[nH]1 [Mebendazole]
physchem
  logD at 1 h: 2.82

## Cc1nccn1CC1CCc2c(c3ccccc3n2C)C1=O (stereo not drawn) [Ondansetron, reference compound]
[3]; pH 7.4, Incubation 1
  solubility at 2 h: 126 µM (≈ 37 µg/mL)
[3]; pH 7.4, Incubation 2
  solubility at 2 h: 126 µM (≈ 37 µg/mL)
[3]; pH 7.4, Mean
  solubility at 2 h: 126 µM (≈ 37 µg/mL)
[3]; Table S1, 1st batch
  PBS solubility, pH 7.4, Incubation 1: 121 µM
  PBS solubility, pH 7.4, Incubation 2: 119 µM

— paper PMC10718076, “1,2-Disubstituted bicyclo[2.1.1]hexanes as saturated bioisosteres of ortho-substituted benzene” (Chemical Science, 2023)
